From ChEMBL document CHEMBL1201862, “PubChem BioAssay data set” (2004)
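96-well plates; 48 h exposure; 5 concentrations. Endpoints by linear interpolation between flanking doses. Not reached: highest tested concentration assigned. GI50 = concentration required for 50% inhibition of growth.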 Activity calls are given as the source filed them. Rule as the data show it: active = GI50 up to about 1.1 µM and inactive = higher.

Tests used:
Experiment in all cases: NCI anticancer screen, dose series, 48 h
SK-MEL-2 = test system: SK-MEL-2
SF-268 = test system: SF-268
KM12 = test system: KM12
NCI-H226 = test system: NCI-H226
HCT-15 = test system: HCT-15
UACC-62 = test system: UACC-62
MDA-MB-231 = test system: MDA-MB-231
OVCAR-5 = test system: OVCAR-5
NCI-H23 = test system: NCI-H23
Hs-578T = test system: Hs-578T
786-0 = test system: 786-0
COLO 205 = test system: COLO 205
DU-145 = test system: DU-145
NCI-H522 = test system: NCI-H522
M14 = test system: M14
EKVX = test system: EKVX
T47D = test system: T47D
MOLT-4 = test system: MOLT-4
CCRF-CEM = test system: CCRF-CEM
HOP-92 = test system: HOP-92
PC-3 = test system: PC-3
HCC 2998 = test system: HCC 2998
UO-31 = test system: UO-31
OVCAR-4 = test system: OVCAR-4
SNB-19 = test system: SNB-19
SNB-75 = test system: SNB-75
IGROV-1 = test system: IGROV-1
HL-60 = test system: HL-60
SF-295 = test system: SF-295
Malme-3M = test system: Malme-3M
LOX IMVI = test system: LOX IMVI
BT-549 = test system: BT-549
SK-MEL-28 = test system: SK-MEL-28
OVCAR-8 = test system: OVCAR-8
K562 = test system: K562
HT-29 = test system: HT-29
MDA-MB-435 = test system: MDA-MB-435
A498 = test system: A498
MCF7 = test system: MCF7
SW-620 = test system: SW-620
OVCAR-3 = test system: OVCAR-3
SK-MEL-5 = test system: SK-MEL-5
TK-10 = test system: TK-10
SN12C = test system: SN12C
U-251 = test system: U-251
ACHN = test system: ACHN
SR = test system: SR
SK-OV-3 = test system: SK-OV-3
UACC-257 = test system: UACC-257
MDA-N = test system: MDA-N
NCI-H460 = test system: NCI-H460
NCI/ADR-RES = test system: NCI/ADR-RES
RPMI-8226 = test system: RPMI-8226
SF-539 = test system: SF-539
HCT-116 = test system: HCT-116
RXF 393 = test system: RXF 393
HOP-62 = test system: HOP-62
A549 = test system: A549
CAKI-1 = test system: CAKI-1

With `CN(NC(=O)CCCl)C1=NCCCCN1` the GI50 (SK-MEL-2) was > 100 µM (inactive), the GI50 (SF-268) was > 100 µM (inactive) and the GI50 (KM12) was > 100 µM (inactive). For the same molecule, the GI50 (NCI-H226) was > 100 µM (inactive), the GI50 (HCT-15) was over 100 µM and the GI50 (UACC-62) was > 100 µM (inactive). The GI50 (MDA-MB-231) was > 100 µM (inactive), the GI50 (OVCAR-5) was > 100 µM (inactive) and the GI50 (NCI-H23) was > 100 µM (inactive). The GI50 (Hs-578T) was > 100 µM (inactive), the GI50 (786-0) was > 100 µM (inactive) and the GI50 (COLO 205) was > 100 µM (inactive). The GI50 (DU-145) was > 100 µM (inactive), the GI50 (NCI-H522) was > 100 µM (inactive) and the GI50 (M14) was > 100 µM (inactive). The GI50 (EKVX) was > 100 µM (inactive), the GI50 (T47D) was > 100 µM (inactive) and the GI50 (MOLT-4) was > 100 µM (inactive). For the same molecule, the GI50 (CCRF-CEM) was > 100 µM (inactive), the GI50 (HOP-92) was > 100 µM (inactive) and the GI50 (PC-3) was > 100 µM (inactive). For the same molecule, the GI50 (HCC 2998) was > 100 µM (inactive), the GI50 (UO-31) was > 100 µM (inactive) and the GI50 (OVCAR-4) was > 100 µM (inactive). For the same molecule, the GI50 (SNB-19) was > 100 µM (inactive), the GI50 (SNB-75) was > 100 µM (inactive) and the GI50 (IGROV-1) was > 100 µM (inactive). The GI50 (HL-60) was > 100 µM (inactive), the GI50 (SF-295) was > 100 µM (inactive) and the GI50 (Malme-3M) was > 100 µM (inactive). For the same molecule, the GI50 (LOX IMVI) was > 100 µM (inactive), the GI50 (BT-549) was > 100 µM (inactive) and the GI50 (SK-MEL-28) was > 100 µM (inactive). For the same molecule, the GI50 (OVCAR-8) was > 100 µM (inactive), the GI50 (K562) was > 100 µM (inactive) and the GI50 (HT-29) was > 100 µM (inactive). The GI50 (MDA-MB-435) was > 100 µM (inactive), the GI50 (A498) was > 100 µM (inactive) and the GI50 (MCF7) was > 100 µM (inactive). For the same molecule, the GI50 (SW-620) was > 100 µM (inactive), the GI50 (OVCAR-3) was > 100 µM (inactive) and the GI50 (SK-MEL-5) was > 100 µM (inactive). For the same molecule, the GI50 (TK-10) was > 100 µM (inactive), the GI50 (SN12C) was > 100 µM (inactive) and the GI50 (U-251) was > 100 µM (inactive). For the same molecule, the GI50 (ACHN) was > 100 µM (inactive), the GI50 (SR) was > 100 µM (inactive) and the GI50 (SK-OV-3) was > 100 µM (inactive). The GI50 (UACC-257) was > 100 µM (inactive), the GI50 (MDA-N) was > 100 µM (inactive) and the GI50 (NCI-H460) was > 100 µM (inactive). The GI50 (NCI/ADR-RES) was > 100 µM (inactive), the GI50 (RPMI-8226) was > 100 µM (inactive) and the GI50 (SF-539) was > 100 µM (inactive). For the same molecule, the GI50 (HCT-116) was > 100 µM (inactive), the GI50 (RXF 393) was > 100 µM (inactive) and the GI50 (HOP-62) was > 100 µM (inactive). The GI50 (A549) was > 100 µM (inactive).
With `COc1ccc2c(c1)C1=NCCN(C)c3ccc([N+](=O)[O-])c(c31)N2` the GI50 (SF-268) was 0.731 µM (active), the GI50 (KM12) was 1.21 µM (inactive) and the GI50 (NCI-H226) was 0.502 µM (active). For the same molecule, the GI50 (HCT-15) was 0.46 µM, the GI50 (UACC-62) was 1.1 µM (active) and the GI50 (MDA-MB-231) was 0.565 µM (active). For the same molecule, the GI50 (OVCAR-5) was 2.19 µM (inactive), the GI50 (NCI-H23) was 0.891 µM (active) and the GI50 (Hs-578T) was 1.66 µM (inactive). The GI50 (786-0) was 0.43 µM (active), the GI50 (COLO 205) was 0.533 µM (active) and the GI50 (DU-145) was 1.02 µM (active). For the same molecule, the GI50 (NCI-H522) was 0.635 µM (active), the GI50 (M14) was 1 µM (active) and the GI50 (EKVX) was 1.56 µM (inactive). The GI50 (T47D) was 2.66 µM (inactive), the GI50 (MOLT-4) was 0.705 µM (active) and the GI50 (CCRF-CEM) was 5.73 µM (inactive). For the same molecule, the GI50 (HOP-92) was 1.4 µM (inactive), the GI50 (PC-3) was 0.583 µM (active) and the GI50 (HCC 2998) was 1.26 µM (inactive). For the same molecule, the GI50 (UO-31) was 0.555 µM (active), the GI50 (OVCAR-4) was 0.685 µM (active) and the GI50 (SNB-19) was 0.652 µM (active). For the same molecule, the GI50 (IGROV-1) was 1.41 µM (inactive), the GI50 (HL-60) was 3.16 µM (inactive) and the GI50 (SF-295) was 1.02 µM (active). For the same molecule, the GI50 (CAKI-1) was 0.698 µM (active), the GI50 (Malme-3M) was 1.04 µM (active) and the GI50 (LOX IMVI) was 0.431 µM (active). For the same molecule, the GI50 (BT-549) was 2.91 µM (inactive), the GI50 (SK-MEL-28) was 2.55 µM (inactive) and the GI50 (OVCAR-8) was 0.9 µM (active). For the same molecule, the GI50 (K562) was 12.2 µM (inactive), the GI50 (HT-29) was 0.573 µM (active) and the GI50 (MDA-MB-435) was 0.748 µM (active). The GI50 (A498) was 1.61 µM (inactive), the GI50 (MCF7) was 1.15 µM (inactive) and the GI50 (SW-620) was 0.415 µM (active). The GI50 (OVCAR-3) was 1.36 µM (inactive), the GI50 (SK-MEL-5) was 1.45 µM (inactive) and the GI50 (TK-10) was 2.86 µM (inactive). The GI50 (SN12C) was 0.796 µM (active), the GI50 (U-251) was 1.34 µM (inactive) and the GI50 (ACHN) was 0.465 µM (active). The GI50 (SR) was 2.88 µM (inactive), the GI50 (SK-OV-3) was 2.23 µM (inactive) and the GI50 (UACC-257) was 2.54 µM (inactive). For the same molecule, the GI50 (MDA-N) was 0.546 µM (active), the GI50 (NCI-H460) was 0.271 µM (active) and the GI50 (NCI/ADR-RES) was 0.665 µM (active). The GI50 (SF-539) was 0.423 µM (active), the GI50 (HCT-116) was 0.312 µM (active) and the GI50 (RXF 393) was 0.277 µM (active). The GI50 (HOP-62) was 0.785 µM (active) and the GI50 (A549) was 0.525 µM (active).
In the case of `COc1ccccc1Nc1nc(N)nc(N)c1N=O`, the GI50 (SK-MEL-2) was > 100 µM (inactive), the GI50 (SF-268) was > 100 µM (inactive) and the GI50 (KM12) was > 100 µM (inactive). For the same molecule, the GI50 (NCI-H226) was > 100 µM (inactive), the GI50 (HCT-15) was over 100 µM and the GI50 (UACC-62) was > 100 µM (inactive). For the same molecule, the GI50 (MDA-MB-231) was > 100 µM (inactive), the GI50 (OVCAR-5) was > 100 µM (inactive) and the GI50 (NCI-H23) was > 100 µM (inactive). For the same molecule, the GI50 (Hs-578T) was > 100 µM (inactive), the GI50 (786-0) was > 100 µM (inactive) and the GI50 (COLO 205) was > 100 µM (inactive). The GI50 (DU-145) was > 100 µM (inactive), the GI50 (NCI-H522) was > 100 µM (inactive) and the GI50 (M14) was 64 µM (inactive). For the same molecule, the GI50 (EKVX) was > 100 µM (inactive), the GI50 (T47D) was 2.82 µM (inactive) and the GI50 (MOLT-4) was > 100 µM (inactive). For the same molecule, the GI50 (CCRF-CEM) was > 100 µM (inactive), the GI50 (HOP-92) was > 100 µM (inactive) and the GI50 (PC-3) was > 100 µM (inactive). For the same molecule, the GI50 (HCC 2998) was > 100 µM (inactive), the GI50 (UO-31) was > 100 µM (inactive) and the GI50 (OVCAR-4) was > 100 µM (inactive). For the same molecule, the GI50 (SNB-19) was > 100 µM (inactive), the GI50 (SNB-75) was > 100 µM (inactive) and the GI50 (IGROV-1) was 3.91 µM (inactive). For the same molecule, the GI50 (HL-60) was > 100 µM (inactive), the GI50 (SF-295) was > 100 µM (inactive) and the GI50 (Malme-3M) was > 100 µM (inactive). The GI50 (LOX IMVI) was > 100 µM (inactive), the GI50 (BT-549) was > 100 µM (inactive) and the GI50 (SK-MEL-28) was > 100 µM (inactive). For the same molecule, the GI50 (OVCAR-8) was > 100 µM (inactive), the GI50 (K562) was > 100 µM (inactive) and the GI50 (HT-29) was 78.2 µM (inactive). For the same molecule, the GI50 (MDA-MB-435) was > 100 µM (inactive), the GI50 (A498) was > 100 µM (inactive) and the GI50 (MCF7) was > 100 µM (inactive). For the same molecule, the GI50 (SW-620) was > 100 µM (inactive), the GI50 (SK-MEL-5) was > 100 µM (inactive) and the GI50 (TK-10) was > 100 µM (inactive). The GI50 (SN12C) was > 100 µM (inactive), the GI50 (U-251) was > 100 µM (inactive) and the GI50 (ACHN) was > 100 µM (inactive). The GI50 (SR) was > 100 µM (inactive), the GI50 (SK-OV-3) was > 100 µM (inactive) and the GI50 (UACC-257) was > 100 µM (inactive). The GI50 (MDA-N) was > 100 µM (inactive), the GI50 (NCI-H460) was > 100 µM (inactive) and the GI50 (NCI/ADR-RES) was > 100 µM (inactive). For the same molecule, the GI50 (RPMI-8226) was > 100 µM (inactive), the GI50 (SF-539) was > 100 µM (inactive) and the GI50 (HCT-116) was > 100 µM (inactive). The GI50 (RXF 393) was > 100 µM (inactive), the GI50 (HOP-62) was > 100 µM (inactive) and the GI50 (A549) was > 100 µM (inactive).
